From ChEMBL document CHEMBL1128117, “Dibenzobicyclo[2.2.2.]octane angiotensin II receptor antagonists” (Bioorg Med Chem Lett, 1995)

What follows are compounds tested against T1, Angiotensin II receptor (Homo sapiens, UniProt P30556+P50052) (assay: Inhibitory activity against Angiotensin II receptor was determined).
T1 sequence (P30556 whole entry): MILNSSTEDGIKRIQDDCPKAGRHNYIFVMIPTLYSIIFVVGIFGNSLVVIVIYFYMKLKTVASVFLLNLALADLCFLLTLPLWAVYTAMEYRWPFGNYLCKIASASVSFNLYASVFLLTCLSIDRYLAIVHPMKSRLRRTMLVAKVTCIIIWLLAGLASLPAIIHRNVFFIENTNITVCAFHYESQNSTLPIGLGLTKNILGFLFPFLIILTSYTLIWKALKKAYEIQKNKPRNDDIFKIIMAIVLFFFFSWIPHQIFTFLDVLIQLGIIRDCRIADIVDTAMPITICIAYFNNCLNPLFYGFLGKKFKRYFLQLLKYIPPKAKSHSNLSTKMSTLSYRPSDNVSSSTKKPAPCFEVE
T1 sequence (P50052 whole entry): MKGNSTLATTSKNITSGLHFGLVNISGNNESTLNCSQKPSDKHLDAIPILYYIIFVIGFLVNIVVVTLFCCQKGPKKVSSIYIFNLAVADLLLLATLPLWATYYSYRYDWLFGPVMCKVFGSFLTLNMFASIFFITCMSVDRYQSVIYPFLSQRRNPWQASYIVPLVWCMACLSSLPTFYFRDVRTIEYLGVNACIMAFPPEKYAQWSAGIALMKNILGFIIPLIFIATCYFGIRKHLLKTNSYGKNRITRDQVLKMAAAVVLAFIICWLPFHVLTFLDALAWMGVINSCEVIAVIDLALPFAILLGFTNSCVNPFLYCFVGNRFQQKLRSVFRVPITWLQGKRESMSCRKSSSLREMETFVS
Format: protein assay

IC50	SMILES
> 10 µM	CCCCc1nc(Cl)c(COC)n1Cc1ccc(N2C(=O)C3(C)CC(C)(C(=O)O)CC(C)(C3)C2=O)cc1 (stereo not drawn)

The compounds below were run on Rattus norvegicus (assay: Dose required to lower the blood pressure by 30 mm Hg on intravenous administration in the renal hypertensive rat was determined).
Format: functional

SMILES	ED30
CCCCc1nc(Cl)c(CO)n1Cc1ccc(-c2ccccc2-c2nnn[nH]2)cc1 [LOSARTAN]	0.8 mg/kg

The compounds below were run on Rattus norvegicus (assay: Dose required to lower the blood pressure by 30 mm Hg on intravenous administration in the renal hypertensive rat; orally inactive).
Format: functional

SMILES	ED30
CCCCc1nc(Sc2ccccc2)c(C=O)n1Cc1ccc2c(c1)C1c3ccccc3C2C(c2nn[nH]n2)C1c1nn[nH]n1 (stereo not drawn)	0.2 mg/kg
CCCCc1nc(Cl)c(C=O)n1Cc1ccc2c(c1)C1c3ccccc3C2C(c2nn[nH]n2)C1c1nn[nH]n1 (stereo not drawn)	0.115 mg/kg

The compounds below were run against T1, Angiotensin II receptor (assay: Inhibitory activity against Angiotensin II receptor).
Format: protein assay

SMILES	IC50
CCCCc1nc(Sc2ccccc2)c(C=O)n1Cc1ccc2c(c1)C1c3ccccc3C2C(c2nn[nH]n2)C1c1nn[nH]n1 (stereo not drawn)	0.46 µM
CCCCc1nc(Cl)c(C=O)n1Cc1ccc2c(c1)C(O)(C(=O)O)c1ccccc1-2 (stereo not drawn)	> 10 µM
CCCCc1nc(Cl)c(C=O)n1Cc1ccc2c(c1)C(C(=O)O)c1ccccc1-2 (stereo not drawn)	3.6 µM
CCCCc1nc(Cl)c(C=O)n1Cc1ccc2c(c1)C1c3ccccc3C2C(c2nn[nH]n2)C1c1nn[nH]n1 (stereo not drawn)	0.09 µM
CCCCc1nc(Cl)c(C=O)n1Cc1ccc2c(c1)C(Cc1nn[nH]n1)c1ccccc1-2 (stereo not drawn)	5 µM
CCCCc1nc(Cl)c(C=O)n1Cc1ccc2c(c1)C1c3ccccc3C2C(C(=O)O)C1C(=O)O (single isomer, unassigned)	0.32 µM
CCCCc1nc(Cl)c(C=O)n1Cc1ccc2c(c1)C1c3ccccc3C2C(C(=O)O)C1C(=O)O (stereo in doubt)	1.1 µM
CCCCc1nc(Cl)c(C=O)n1Cc1ccc2c(c1)C1c3ccccc3C2C(C(=O)O)C1C(=O)O (stereo in doubt; 3)	1.1 µM
CCCCc1nc(Cl)c(C=O)n1Cc1ccc2c(c1)C1c3ccccc3C2C(C(=O)O)C1C(=O)O (stereo in doubt; 5)	0.22 µM
